Assay results taken from US9540397B2, “BACE1 inhibitors” (Hoffmann-La Roche Inc., priority 2014, dated 2017).

Assays:
[1] = system: Aβ40 in brain of wild-type mice; experiment: Lowering of Aβ40 in brain of wild-type mice; type: in vivo; details: Mus musculus, po; female C57Bl/6J mice, 30 mg/kg per os, 4 h; brain Aβ40 related to the value in the vehicle group; read-out: Aβ40 (wt mice, brain)
Method: Lowering of Aβ40 in Brain of Wild-Type Mice:
Animals and Housing Conditions.
Animals were maintained in a 12/12 h light/dark cycle, with lights starting at 6 a.m., and experiments were conducted during the light phase. Animal housing and experimental procedures were in line with ethical and legal guidelines and were authorized by local veterinary authorities.
Experiment. Female C57Bl/6J mice were treated with a dose of 30 mg/kg of the compounds, 3-4 animals per treatment group. The test compound was dissolved in 5% EtOH, 10% Solutol, and was applied per os at 10 mL/kg. After 4 h, the animals were sacrificed and brain and plasma were collected. The brain was cut into halves and immediately frozen on dry ice. Brain was used for measurement of Aβ40 and plasma was used for determination of compound exposure. […] Brain tissue was homogenized in 2% DEA buffer in a Roche MagnaLyser (20″, 4000 rpm) and subsequently centrifuged for 1 h at 100000 g. DEA was reduced to 0.2% in 50 mM NaCl and one-half of the DEA lysate was passed over an Oasis Solid phase extraction plate (Waters; cat. no. 186000679), which had been activated with MeOH and equilibrated in dH2O (1 mL each). After washes in 10% and 30% MeOH (1 mL each), the Aβ-peptides were eluted in 0.8 mL of 2% NH4OH in 90% MeOH. The eluate was dried over a N2 flow, and the dried sample was reconstituted in 30 μL of AlphaLISA assay buffer. Aβ40 was determined by an AlphaLISA assay (Perkin-Elmer). In a white 96-well, half area microplate (Perkin-Elmer cat. no. 6005561), 20 μL of the reconstituted sample were mixed with 5 μL of biotinylated BAP-24 (specific for C-terminus of Aβ40) (Brockhaus, M.; Grunberg, J.; Rohrig, S.; Loetscher, H.; Wittenburg, N.; Baumeister, R.; Jacobsen, H.; Haass, C. Caspasemediated cleavage is not required for the activity of presenilins in amyloidogenesis and NOTCH signaling. NeuroReport 1998, 9, 1481-1486.) stock=4.4 mg/mL, f.c.5.5 μg/mL), and 5 μL 252Q6 acceptor beads (252Q6 antibody, Invitrogen AMB0062) had been previously conjugated with AlphaLISA Acceptor beads (Perkin-Elmer cat. no. 6772002); final dilution 1:500). The mix was incubated for 1 h at RT in the dark. Then 20 μL of Streptavin-coated Donor Beads (Perkin-Elmer cat. no. 6760002, final dilution 1:125) were added and this final mix was incubated in the dark for another 30 min at RT before RFU was measured in an AlphaScreen Reader (Perkin-Elmer Envision 2104). The value obtained for Aβ40 in the treated animals was related to the value in the vehicle group and is given in %. Alternatively a commercial ELISA was used for Aβ40 determination (Wako ELISA: (“Human/Rat β Amyloid (40) ELISA kit Wako II”; cat nr. 294-64701) following the manufacture's instruction. Also here the Aβ-lowering efficacy was calculated as percentage of the vehicle group.

BACE1 = target: T1, BACE1 (Homo sapiens, UniProt P56817); experiment: Cellular Aβ-lowering assay (Abeta 40 AlphaLISA, HEK293 APP cells); type: cell-based; details: 18-20 hrs incubation, Aβ40 in culture supernatant, read-out: BACE1 cell act. Aβ40 IC50
T1 construct: endogenous in cells; host or cells: HEK293 APP cells
T1 sequence (P56817 46-501): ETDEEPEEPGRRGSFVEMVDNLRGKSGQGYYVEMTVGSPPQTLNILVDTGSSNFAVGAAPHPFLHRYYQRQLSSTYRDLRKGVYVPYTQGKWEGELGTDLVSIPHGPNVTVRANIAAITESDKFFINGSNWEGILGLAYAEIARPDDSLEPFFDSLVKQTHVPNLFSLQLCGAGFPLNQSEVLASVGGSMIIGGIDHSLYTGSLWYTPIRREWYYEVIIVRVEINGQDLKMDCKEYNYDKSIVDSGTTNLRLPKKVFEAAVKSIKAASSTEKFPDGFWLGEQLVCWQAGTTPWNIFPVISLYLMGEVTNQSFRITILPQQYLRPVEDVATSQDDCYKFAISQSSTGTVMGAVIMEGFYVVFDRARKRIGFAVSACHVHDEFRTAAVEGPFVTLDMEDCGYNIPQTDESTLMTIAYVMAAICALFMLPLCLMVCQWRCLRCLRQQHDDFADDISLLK
Method in brief: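 APP-expressing HEK293 cells exposed to compounds for 18-20 h at 37° C. (1% DMSO final). Secreted Aβ1-40 in supernatant measured by AlphaLISA (615 nm emission), expressed as percent of DMSO-only signal, and IC50 fitted.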

SMILES	IC50 (BACE1) [nM]	response vs control in vivo at 30 mg/kg [1] [%]
Cc1cc(C#N)cnc1C(=O)Nc1ccc(F)c([C@@]2(C)N=C(N)C(C)(C)[S@@]3(=O)=NCCC[C@@H]23)n1 [Example 1AB, N-(6-((4aS,5R,9R)-7-amino-5,8,8-trimethyl-9-oxido-2,3,4,4a,5,8-hexahydro-[1,4]thiazino[2,1-f][1,2]thiazin-5-yl)-5-fluoropyridin-2-yl)-5-cyano-3-methylpicolinamide]	2.3	79
CC1(C)C(N)=N[C@](C)(c2nc(NC(=O)c3ccc(OCC(F)(F)C(F)F)cn3)ccc2F)[C@H]2CCCN=[S@@]21=O [Example 8AA, N-(6-((4aR,5R,9R)-7-amino-5,8,8-trimethyl-9-oxido-2,3,4,4a,5,8-hexahydro-[1,4]thiazino[2,1-f][1,2]thiazin-5-yl)-5-fluoropyridin-2-yl)-5-(2,2,3,3-tetrafluoropropoxy)picolinamide]	35.4	61
CC1(C)C(N)=N[C@](C)(c2nc(NC(=O)c3ccc(OCC(F)(F)C(F)F)cn3)ccc2F)[C@H]2CC(F)(F)CN=[S@@]21=O [Example 36AA, N-(6-((4aR,5R,9R)-7-amino-3,3-difluoro-5,8,8-trimethyl-9-oxido-2,3,4,4a,5,8-hexahydro-[1,4]thiazino[2,1-f][1,2]thiazin-5-yl)-5-fluoropyridin-2-yl)-5-(2,2,3,3-tetrafluoropropoxy)-picolinamide]	416	84
CC1(C)C(N)=N[C@](C)(c2nc(NC(=O)c3ncc(F)cc3Cl)ccc2F)[C@@H]2CCN=[S@@]21=O [Example 11AB, N-(6-((3aS,4R,8R)-6-amino-4,7,7-trimethyl-8-oxido-3,3a,4,7-tetrahydro-2H-isothiazolo[1,5-a][1,4]thiazin-4-yl)-5-fluoropyridin-2-yl)-3-chloro-5-fluoropicolinamide]	3.5	100
CC1(C)C(N)=N[C@](C)(c2nc(NC(=O)c3ccc(C#N)cn3)ccc2F)[C@H]2CC(F)(F)CN=[S@@]21=O [Example 34AA, N-(6-((4aR,5R,9R)-7-amino-3,3-difluoro-5,8,8-trimethyl-9-oxido-2,3,4,4a,5,8-hexahydro-[1,4]thiazino[2,1-f][1,2]thiazin-5-yl)-5-fluoropyridin-2-yl)-5-cyanopicolinamide]	9.8	113
COc1cnc(C(=O)Nc2ccc(F)c([C@@]3(C)N=C(N)C(C)(C)[S@@]4(=O)=NCC[C@@H]34)n2)cn1 [Example 16AB, N-(6-((3aS,4R,8R)-6-amino-4,7,7-trimethyl-8-oxido-3,3a,4,7-tetrahydro-2H-isothiazolo[1,5-a][1,4]thiazin-4-yl)-5-fluoropyridin-2-yl)-5-methoxypyrazine-2-carboxamide]	8.6	89
CC1(C)C(N)=N[C@](C)(c2nc(NC(=O)c3ccc(OC(F)F)cn3)ccc2F)[C@H]2CC(F)(F)CN=[S@@]21=O [Example 35AA, N-(6-((4aR,5R,9R)-7-amino-3,3-difluoro-5,8,8-trimethyl-9-oxido-2,3,4,4a,5,8-hexahydro-[1,4]thiazino[2,1-f][1,2]thiazin-5-yl)-5-fluoropyridin-2-yl)-5-(difluoromethoxy)picolinamide]	87.4	101
CC1(C)C(N)=N[C@](C)(c2nc(NC(=O)c3ccc(F)cn3)ccc2F)[C@H]2CC(F)(F)CN=[S@@]21=O [Example 33AA, N-(6-((4aR,5R,9R)-7-amino-3,3-difluoro-5,8,8-trimethyl-9-oxido-2,3,4,4a,5,8-hexahydro-[1,4]thiazino[2,1-f][1,2]thiazin-5-yl)-5-fluoropyridin-2-yl)-5-fluoropicolinamide]	90	83
CC1(C)C(N)=N[C@](C)(c2nc(NC(=O)c3ncc(Cl)cc3Cl)ccc2F)[C@H]2CCCN=[S@@]21=O [Example 3AA, N-(6-((4aR,5R,9R)-7-amino-5,8,8-trimethyl-9-oxido-2,3,4,4a,5,8-hexahydro-[1,4]thiazino[2,1-f][1,2]thiazin-5-yl)-5-fluoropyridin-2-yl)-3,5-dichloropicolinamide]	1.3	76
Cc1cc(Cl)cnc1C(=O)Nc1ccc(F)c([C@@]2(C)N=C(N)C(C)(C)[S@@]3(=O)=NCC[C@@H]23)n1 [Example 12AB, N-(6-((3aS,4R,8R)-6-amino-4,7,7-trimethyl-8-oxido-3,3a,4,7-tetrahydro-2H-isothiazolo[1,5-a][1,4]thiazin-4-yl)-5-fluoropyridin-2-yl)-5-chloro-3-methylpicolinamide]	1.3	38
Cc1cc(C#N)cnc1C(=O)Nc1ccc(F)c([C@@]2(C)N=C(N)C(C)(C)[S@@]3(=O)=NCCC[C@H]23)n1 [Example 1AA, N-(6-((4aR,5R,9R)-7-amino-5,8,8-trimethyl-9-oxido-2,3,4,4a,5,8-hexahydro-[1,4]thiazino[2,1-f][1,2]thiazin-5-yl)-5-fluoropyridin-2-yl)-5-cyano-3-methylpicolinamide]	0.6	38

Now from value to molecule, other results behind:

IC50 (BACE1) [nM]	SMILES	response vs control in vivo at 30 mg/kg [1] [%]
1.6	CC1(C)C(N)=N[C@](C)(c2nc(NC(=O)c3ncc(C#N)cc3Cl)ccc2F)[C@H]2CC(F)(F)CN=[S@@]21=O [Example 37AA, N-(6-((4aR,5R,9R)-7-amino-3,3-difluoro-5,8,8-trimethyl-9-oxido-2,3,4,4a,5,8-hexahydro-[1,4]thiazino[2,1-f][1,2]thiazin-5-yl)-5-fluoropyridin-2-yl)-3-chloro-5-cyanopicolinamide]	73
30.4	CC1(C)C(N)=N[C@](C)(c2nc(NC(=O)c3ncc(F)cc3Cl)ccc2F)[C@H]2CC(F)(F)CN=[S@@]21=O [Example 41AA, N-(6-((4aR,5R,9R)-7-amino-3,3-difluoro-5,8,8-trimethyl-9-oxido-2,3,4,4a,5,8-hexahydro-[1,4]thiazino[2,1-f][1,2]thiazin-5-yl)-5-fluoropyridin-2-yl)-3-chloro-5-fluoropicolinamide]	78
4.9	CC1(C)C(N)=N[C@](C)(c2nc(NC(=O)c3ncc(Cl)cc3Cl)ccc2F)[C@H]2CC(F)(F)CN=[S@@]21=O [Example 40AA, N-(6-((4aR,5R,9R)-7-amino-3,3-difluoro-5,8,8-trimethyl-9-oxido-2,3,4,4a,5,8-hexahydro-[1,4]thiazino[2,1-f][1,2]thiazin-5-yl)-5-fluoropyridin-2-yl)-3,5-dichloropicolinamide]	77
0.3	Cc1cc(C#N)cnc1C(=O)Nc1ccc(F)c([C@@]2(C)N=C(N)C(C)(C)[S@@]3(=O)=NCC4(CC4)C[C@H]23)n1 [Example 48AA, N-(6-((4aR,5R,9R)-7-amino-5,8,8-trimethyl-9-oxido-4,4a,5,8-tetrahydro-2H-spiro[[1,4]thiazino[2,1-f][1,2]thiazine-3,1′-cyclopropan]-5-yl)-5-fluoropyridin-2-yl)-5-cyano-3-methylpicolinamide]	61
56	CC1(C)C(N)=N[C@](C)(c2nc(NC(=O)c3ccc(Cl)cn3)ccc2F)[C@H]2CC(F)(F)CN=[S@@]21=O [Example 43AA, N-(6-((4aR,5R,9R)-7-amino-3,3-difluoro-5,8,8-trimethyl-9-oxido-2,3,4,4a,5,8-hexahydro-[1,4]thiazino[2,1-f][1,2]thiazin-5-yl)-5-fluoropyridin-2-yl)-5-chloropicolinamide]	80
